Experiments:
in vivo = details: beagle, dog, po, 150 mg
Procedure: Tablets were manufactured containing either pure zoledronic acid or the disodium salt of zoledronic acid (disodium zoledronate tetrahydrate). Both types of tablets contained 50 mg of zoledronic acid equivalent per tablet. Identical excipients were used in both types of tablets, with amounts adjusted to account for the difference in molecular weights between the acid and the disodium salt.
Beagle dogs were orally administered tablets containing 150 mg zoledronic acid equivalent either in the form of disodium zoledronate (Group 1) or pure zoledronic acid (Group 2). Each animal was given three 50 mg equivalent tablets (150 mg total), which were administered together. The animal's oral cavity was wetted with water before placing the tablets on the back of the animal's tongue. Animals were fasted before and after dosing. Animals were 6 to 9 months of age and weighed 6 to 10 kg on the day of dosing. There were three dogs per group.
Serial blood samples were collected from each animal by venipuncture of the jugular vein at various points after dosing for measurement of plasma concentrations of zoledronic acid. Blood samples were collected into chilled tubes containing K2EDTA as the anticoagulant. Samples were then centrifuged at approximately 3000 rpm at +4° C. for 10 minutes for plasma derivation. Plasma concentrations of zoledronic acid were measured using an LC/MS/MS method.

[1] = system: health-related quality of life (RAND-36); assay: randomized placebo-controlled trial in chronic low back pain with Modic changes, RAND-36 quality of life; assay type: in vivo, human; details: for RAND-36 Mental component, Unadjusted analyses Difference (95% CI) / RAND-36 Physical component, Unadjusted analyses Difference (95% CI) / Total RAND-36, Unadjusted analyses Difference (95% CI) / RAND-36 Mental component, Adjusted analyses Difference (95% CI) / RAND-36 Physical component, Adjusted analyses Difference (95% CI) / Total RAND-36, Adjusted analyses Difference (95% CI): ZA versus placebo; for RAND-36 Mental component, Adjusted analyses Difference (95% CI) / RAND-36 Physical component, Adjusted analyses Difference (95% CI) / Total RAND-36, Adjusted analyses Difference (95% CI): adjusted for baseline; for RAND-36 Mental component, Mean (SD) change / RAND-36 Mental component, Mean (SD) original values / RAND-36 Physical component, Mean (SD) change / RAND-36 Physical component, Mean (SD) original values / Total RAND-36, Mean (SD) change / Total RAND-36, Mean (SD) original values: single 5 mg IV infusion
Procedure: A study was performed to evaluate the efficacy of a single intravenous infusion of 5 mg ZA in comparison with intravenous placebo infusion among patients with chronic low back pain (LBP) and Modic changes on MRI. This study was a double-blinded, randomized, placebo-controlled clinical trial in patients with low back pain (LBP). Patients were included in the study if they had low back symptoms for at least three months, an LBP of at least six (6) on a 10-cm Visual Analog Scale (VAS) or an Oswestry Disability Index (ODI) of at least 30%, and an M1, mixed M1/2 or M2 type change on MRI performed within six months at most prior to enrolment.
After confirmation of eligibility patients were randomized to receive a single intravenous infusion of 5 mg zoledronic acid (n=20) or 100 ml saline as placebo (n=20) over a 15-minute period. Information on use of the concomitant medication and hospital admissions were recorded. Blood samples were taken for the assessment of safety, inflammatory mediators and markers of bone turnover at baseline, one month and one year.
Clinical assessments were performed 14 days before enrolment (screening visit), and follow-up visits at one month and one year after the infusion. The primary outcome was the change in the intensity of LBP on VAS. Secondary outcomes included leg pain intensity, ODI, health-related quality of life assessed with RAND-36, patient-reported sick leaves and lumbar flexibility. These outcome measures were assessed at baseline and at each follow-up. Lumbar flexibility was evaluated using the fingers-to-floor and trunk side bending measures (in cm). The percentage of patients undergoing a 20% relative improvement, the proportion of patients reaching a VAS score of 40 or less in the primary outcome, and patient acceptable symptom state (PASS) were also assessed. Pain medication use was inquired about during the follow-up visits.

With `O=P(O)(O)C(O)(Cn1ccnc1)P(=O)(O)O` [zoledronic acid] as the compound, how does the AUC(0-inf) (in vivo) read?
Its AUC(0-inf) is 2220 ng·h/mL.

What about the “RAND-36 Mental component, Unadjusted analyses Difference (95% CI)” value ([1]; 1 mo.) of the same compound?
Its value is 2.0 (−2 to 6).

And the “RAND-36 Physical component, Unadjusted analyses Difference (95% CI)” value ([1]; 1 mo.)?
Its value is 0.3 (−4 to 5).

What about the “Total RAND-36, Unadjusted analyses Difference (95% CI)” value ([1]; 1 mo.) of the same compound?
The value was 1.2 (−3 to 5).

And the “RAND-36 Mental component, Adjusted analyses Difference (95% CI)” value ([1]; 1 mo.)?
Its value is 1.6 (−2 to 5).

And the “RAND-36 Physical component, Adjusted analyses Difference (95% CI)” value ([1]; 1 mo.)?
Its value is 1.3 (−3 to 6).

What about the “Total RAND-36, Adjusted analyses Difference (95% CI)” value ([1]; 1 mo.) of the same compound?
Its value is 1.3 (−3 to 5).

And the “RAND-36 Mental component, Mean (SD) change” value ([1]; 1 mo.)?
Its value is 1.0 (6.1).

What about the “RAND-36 Mental component, Mean (SD) original values” ([1]; 1 mo.) of the same compound?
The value was 50 (9).

What about the “RAND-36 Physical component, Mean (SD) change” value ([1]; 1 mo.) of the same compound?
Its value is 0.1 (8.6).

And the “RAND-36 Physical component, Mean (SD) original values” ([1]; 1 mo.)?
The value was 52 (9).

And the “Total RAND-36, Mean (SD) change” value ([1]; 1 mo.)?
Its value is 0.6 (6.4).

What about the “Total RAND-36, Mean (SD) original values” ([1]; 1 mo.) of the same compound?
Its value is 51 (8).

And the “RAND-36 Mental component, Unadjusted analyses Difference (95% CI)” value ([1]; 12 mos.)?
The value was 3.5 (−2 to 9).

And the “RAND-36 Physical component, Unadjusted analyses Difference (95% CI)” value ([1]; 12 mos.)?
Its value is 0.7 (−5 to 6).

What about the “Total RAND-36, Unadjusted analyses Difference (95% CI)” value ([1]; 12 mos.) of the same compound?
Its value is 2.1 (−3 to 7).

And the “RAND-36 Mental component, Adjusted analyses Difference (95% CI)” value ([1]; 12 mos.)?
Its value is 2.7 (−2 to 7).

And the “RAND-36 Physical component, Adjusted analyses Difference (95% CI)” value ([1]; 12 mos.)?
Its value is 2.1 (−3 to 7).

What about the “Total RAND-36, Adjusted analyses Difference (95% CI)” value ([1]; 12 mos.) of the same compound?
The value was 2.2 (−2 to 7).

And the “RAND-36 Mental component, Mean (SD) change” value ([1]; 12 mos.)?
Its value is 1.8 (9.0).

What about the “RAND-36 Mental component, Mean (SD) original values” ([1]; 12 mos.) of the same compound?
The value was 51 (9).

What about the “RAND-36 Physical component, Mean (SD) change” value ([1]; 12 mos.) of the same compound?
The value was 0.3 (10).

And the “RAND-36 Physical component, Mean (SD) original values” ([1]; 12 mos.)?
Its value is 52 (8).

What about the “Total RAND-36, Mean (SD) change” value ([1]; 12 mos.) of the same compound?
The value was 1.0 (8.7).

What about the “Total RAND-36, Mean (SD) original values” ([1]; 12 mos.) of the same compound?
Its value is 51 (8).
